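A five-concentration, 48-hour dose response in 96-well plates underlies each endpoint, interpolated linearly between surrounding concentrations. Here, GI50 denotes the concentration required for 50% inhibition of growth.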 Active and inactive are the calls of the source. Cut-off read from the data, not from the text of the source: active = GI50 up to about 1.1 µM and inactive = higher.
What was measured:
Test in all cases: DTP human tumour cell line panel, 48 h
M14 = test system: M14
SF-295 = test system: SF-295
Hs-578T = test system: Hs-578T
NCI-H23 = test system: NCI-H23
DU-145 = test system: DU-145
K562 = test system: K562
MOLT-4 = test system: MOLT-4
SK-OV-3 = test system: SK-OV-3
HT-29 = test system: HT-29
OVCAR-4 = test system: OVCAR-4
COLO 205 = test system: COLO 205
TK-10 = test system: TK-10
A549 = test system: A549
MDA-N = test system: MDA-N
786-0 = test system: 786-0
SK-MEL-2 = test system: SK-MEL-2
CCRF-CEM = test system: CCRF-CEM
IGROV-1 = test system: IGROV-1
NCI/ADR-RES = test system: NCI/ADR-RES
SNB-19 = test system: SNB-19
UACC-257 = test system: UACC-257
MDA-MB-231 = test system: MDA-MB-231
SF-268 = test system: SF-268
SN12C = test system: SN12C
HL-60 = test system: HL-60
UACC-62 = test system: UACC-62
RPMI-8226 = test system: RPMI-8226
SK-MEL-28 = test system: SK-MEL-28
SNB-75 = test system: SNB-75
ACHN = test system: ACHN
PC-3 = test system: PC-3
A498 = test system: A498
NCI-H226 = test system: NCI-H226
T47D = test system: T47D
U-251 = test system: U-251
MCF7 = test system: MCF7
KM12 = test system: KM12
HCT-116 = test system: HCT-116
CAKI-1 = test system: CAKI-1
MDA-MB-435 = test system: MDA-MB-435
HCT-15 = test system: HCT-15
NCI-H460 = test system: NCI-H460
OVCAR-5 = test system: OVCAR-5
SW-620 = test system: SW-620
EKVX = test system: EKVX
HOP-62 = test system: HOP-62
SK-MEL-5 = test system: SK-MEL-5
OVCAR-8 = test system: OVCAR-8
SR = test system: SR
HOP-92 = test system: HOP-92
UO-31 = test system: UO-31
OVCAR-3 = test system: OVCAR-3
RXF 393 = test system: RXF 393
SF-539 = test system: SF-539
LOX IMVI = test system: LOX IMVI
HCC 2998 = test system: HCC 2998
Malme-3M = test system: Malme-3M
NCI-H522 = test system: NCI-H522

With C=C[C@@H](OCOCC[Si](C)(C)C)[C@@H](CC)OC(CCCOC(=O)C(C)(C)C)OC (stereo partly specified) the GI50 (M14) was 36.4 µM (inactive), the GI50 (SF-295) was 22 µM (inactive) and the GI50 (Hs-578T) was 27.1 µM (inactive). The GI50 (NCI-H23) was 28.3 µM (inactive), the GI50 (DU-145) was 43.7 µM (inactive) and the GI50 (K562) was 60.4 µM (inactive). The GI50 (MOLT-4) was 91.2 µM (inactive), the GI50 (SK-OV-3) was > 100 µM (inactive) and the GI50 (HT-29) was 29.4 µM (inactive). The GI50 (OVCAR-4) was 26.4 µM (inactive), the GI50 (COLO 205) was 29.9 µM (inactive) and the GI50 (TK-10) was 14.9 µM (inactive). For the same compound, the GI50 (A549) was 31.5 µM (inactive), the GI50 (MDA-N) was 45.1 µM (inactive) and the GI50 (786-0) was 25 µM (inactive). The GI50 (SK-MEL-2) was 21.4 µM (inactive), the GI50 (CCRF-CEM) was 27.9 µM (inactive) and the GI50 (IGROV-1) was 49 µM (inactive). For the same compound, the GI50 (NCI/ADR-RES) was 30.1 µM (inactive), the GI50 (SNB-19) was 16.3 µM (inactive) and the GI50 (UACC-257) was 34.6 µM (inactive). For the same compound, the GI50 (MDA-MB-231) was 66.1 µM (inactive), the GI50 (SF-268) was 33.3 µM (inactive) and the GI50 (SN12C) was 45.3 µM (inactive). For the same compound, the GI50 (HL-60) was 18.4 µM (inactive), the GI50 (UACC-62) was 25.1 µM (inactive) and the GI50 (RPMI-8226) was 41.7 µM (inactive). For the same compound, the GI50 (SK-MEL-28) was 34.5 µM (inactive), the GI50 (SNB-75) was 31 µM (inactive) and the GI50 (ACHN) was 36.7 µM (inactive). For the same compound, the GI50 (PC-3) was 37.3 µM (inactive), the GI50 (A498) was 43.8 µM (inactive) and the GI50 (NCI-H226) was 21.9 µM (inactive). For the same compound, the GI50 (T47D) was 19.4 µM (inactive), the GI50 (U-251) was 21 µM (inactive) and the GI50 (MCF7) was 21.8 µM (inactive). The GI50 (KM12) was 24 µM (inactive), the GI50 (HCT-116) was 21 µM (inactive) and the GI50 (CAKI-1) was 53.7 µM (inactive). The GI50 (MDA-MB-435) was 38.5 µM (inactive), the GI50 (HCT-15) was 22.1 µM and the GI50 (NCI-H460) was 54.2 µM (inactive). For the same compound, the GI50 (OVCAR-5) was 21.7 µM (inactive), the GI50 (SW-620) was 26.1 µM (inactive) and the GI50 (EKVX) was 25.3 µM (inactive). For the same compound, the GI50 (HOP-62) was 36.7 µM (inactive), the GI50 (SK-MEL-5) was 31.3 µM (inactive) and the GI50 (OVCAR-8) was 38.5 µM (inactive). For the same compound, the GI50 (SR) was 41.6 µM (inactive), the GI50 (HOP-92) was 81.1 µM (inactive) and the GI50 (UO-31) was 40 µM (inactive). The GI50 (OVCAR-3) was 40.9 µM (inactive).

In the case of NC1CC2C3CCC2C1C3=O (stereo unspecified), the GI50 (M14) is reported as > 100 µM (inactive), the GI50 (SF-295) is reported as > 100 µM (inactive) and the GI50 (Hs-578T) is reported as > 100 µM (inactive). For the same compound, the GI50 (NCI-H23) was > 100 µM (inactive), the GI50 (RXF 393) was > 100 µM (inactive) and the GI50 (DU-145) was > 100 µM (inactive). The GI50 (K562) was > 100 µM (inactive), the GI50 (MOLT-4) was > 100 µM (inactive) and the GI50 (SK-OV-3) was > 100 µM (inactive). The GI50 (HT-29) was > 100 µM (inactive), the GI50 (SF-539) was > 100 µM (inactive) and the GI50 (OVCAR-4) was > 100 µM (inactive). The GI50 (COLO 205) was > 100 µM (inactive), the GI50 (TK-10) was > 100 µM (inactive) and the GI50 (A549) was > 100 µM (inactive). The GI50 (MDA-N) was > 100 µM (inactive), the GI50 (786-0) was > 100 µM (inactive) and the GI50 (LOX IMVI) was > 100 µM (inactive). The GI50 (SK-MEL-2) was > 100 µM (inactive), the GI50 (CCRF-CEM) was > 100 µM (inactive) and the GI50 (IGROV-1) was > 100 µM (inactive). For the same compound, the GI50 (NCI/ADR-RES) was > 100 µM (inactive), the GI50 (SNB-19) was > 100 µM (inactive) and the GI50 (UACC-257) was > 100 µM (inactive). For the same compound, the GI50 (MDA-MB-231) was > 100 µM (inactive), the GI50 (SF-268) was > 100 µM (inactive) and the GI50 (SN12C) was > 100 µM (inactive). The GI50 (HCC 2998) was > 100 µM (inactive), the GI50 (HL-60) was > 100 µM (inactive) and the GI50 (UACC-62) was > 100 µM (inactive). The GI50 (Malme-3M) was > 100 µM (inactive), the GI50 (SK-MEL-28) was > 100 µM (inactive) and the GI50 (SNB-75) was 4.76 µM (inactive). For the same compound, the GI50 (ACHN) was > 100 µM (inactive), the GI50 (PC-3) was > 100 µM (inactive) and the GI50 (A498) was > 100 µM (inactive). The GI50 (NCI-H226) was > 100 µM (inactive), the GI50 (T47D) was > 100 µM (inactive) and the GI50 (U-251) was > 100 µM (inactive). For the same compound, the GI50 (MCF7) was > 100 µM (inactive), the GI50 (KM12) was > 100 µM (inactive) and the GI50 (HCT-116) was > 100 µM (inactive). For the same compound, the GI50 (CAKI-1) was > 100 µM (inactive), the GI50 (MDA-MB-435) was > 100 µM (inactive) and the GI50 (HCT-15) was greater than 100 µM. For the same compound, the GI50 (NCI-H460) was > 100 µM (inactive), the GI50 (OVCAR-5) was > 100 µM (inactive) and the GI50 (SW-620) was > 100 µM (inactive). The GI50 (EKVX) was > 100 µM (inactive), the GI50 (HOP-62) was > 100 µM (inactive) and the GI50 (SK-MEL-5) was > 100 µM (inactive). For the same compound, the GI50 (NCI-H522) was > 100 µM (inactive), the GI50 (OVCAR-8) was > 100 µM (inactive) and the GI50 (SR) was > 100 µM (inactive). The GI50 (HOP-92) was > 100 µM (inactive), the GI50 (UO-31) was > 100 µM (inactive) and the GI50 (OVCAR-3) was > 100 µM (inactive).

In the case of O=C1NN(Cc2ccccc2)C(=O)N2CCC[C@@H]12, the GI50 (M14) is reported as > 100 µM (inactive), the GI50 (SF-295) is reported as > 100 µM (inactive) and the GI50 (Hs-578T) is reported as > 100 µM (inactive). For the same compound, the GI50 (NCI-H23) was > 100 µM (inactive), the GI50 (RXF 393) was > 100 µM (inactive) and the GI50 (DU-145) was > 100 µM (inactive). The GI50 (MOLT-4) was > 100 µM (inactive), the GI50 (SK-OV-3) was > 100 µM (inactive) and the GI50 (HT-29) was > 100 µM (inactive). For the same compound, the GI50 (SF-539) was > 100 µM (inactive), the GI50 (OVCAR-4) was > 100 µM (inactive) and the GI50 (COLO 205) was > 100 µM (inactive). The GI50 (TK-10) was > 100 µM (inactive), the GI50 (A549) was > 100 µM (inactive) and the GI50 (MDA-N) was > 100 µM (inactive). For the same compound, the GI50 (786-0) was > 100 µM (inactive), the GI50 (LOX IMVI) was > 100 µM (inactive) and the GI50 (SK-MEL-2) was > 100 µM (inactive). The GI50 (CCRF-CEM) was > 100 µM (inactive), the GI50 (IGROV-1) was > 100 µM (inactive) and the GI50 (NCI/ADR-RES) was > 100 µM (inactive). The GI50 (SNB-19) was > 100 µM (inactive), the GI50 (UACC-257) was > 100 µM (inactive) and the GI50 (MDA-MB-231) was > 100 µM (inactive). For the same compound, the GI50 (SF-268) was > 100 µM (inactive), the GI50 (SN12C) was > 100 µM (inactive) and the GI50 (HCC 2998) was > 100 µM (inactive). For the same compound, the GI50 (HL-60) was > 100 µM (inactive), the GI50 (UACC-62) was > 100 µM (inactive) and the GI50 (Malme-3M) was > 100 µM (inactive). For the same compound, the GI50 (SK-MEL-28) was > 100 µM (inactive), the GI50 (SNB-75) was 0.0179 µM (active) and the GI50 (ACHN) was > 100 µM (inactive). The GI50 (PC-3) was > 100 µM (inactive), the GI50 (A498) was > 100 µM (inactive) and the GI50 (NCI-H226) was 0.0505 µM (active). The GI50 (T47D) was > 100 µM (inactive), the GI50 (MCF7) was > 100 µM (inactive) and the GI50 (KM12) was > 100 µM (inactive). The GI50 (HCT-116) was > 100 µM (inactive), the GI50 (CAKI-1) was > 100 µM (inactive) and the GI50 (MDA-MB-435) was > 100 µM (inactive). The GI50 (HCT-15) was greater than 100 µM, the GI50 (NCI-H460) was > 100 µM (inactive) and the GI50 (OVCAR-5) was > 100 µM (inactive). For the same compound, the GI50 (SW-620) was > 100 µM (inactive), the GI50 (EKVX) was > 100 µM (inactive) and the GI50 (HOP-62) was > 100 µM (inactive). For the same compound, the GI50 (SK-MEL-5) was > 100 µM (inactive), the GI50 (OVCAR-8) was > 100 µM (inactive) and the GI50 (HOP-92) was > 100 µM (inactive). The GI50 (OVCAR-3) was > 100 µM (inactive).

From ChEMBL document CHEMBL1201862, “PubChem BioAssay data set” (2004)
